Measured values: ChEMBL document CHEMBL5257130, “Methyl and Fluorine Effects in Novel Orally Bioavailable Keap1-Nrf2 PPI Inhibitor” (ACS Med Chem Lett, 2023)
Values after ≈ are worked out from the molar mass of the structure shown. One block for each molecule: values may come before it.

What was measured:
[1] = biological target: Keap1/Nrf2 (Homo sapiens, UniProt Q14145); assay: Inhibition of Nrf2-Keap1 Kelch domain (unknown origin) protein-protein interaction in presence of biotin labeled 16mer ETGE peptide AFFAQLQLDEETGEFL; type: protein assay
[2] = Apparent permeability in human Caco-2 cells at 25 micromol/L incubated for 2 hrs by LC/MS/MS analysis; type: ADME, cell-based; conditions: dose 25 µmol/L
[3] = cells; conditions: Homo sapiens, HRMC, 18 h
Description: Upregulation of HO-1 expression in human HRMC cells incubated for 18 hrs by ELISA assay

[4] = biological target: Kelch-like ECH-associated protein 1 (Homo sapiens) (UniProt Q14145)
Description: Binding affinity to Keap1 Kelch domain (unknown origin) assessed as change in enthalpy by isothermal titration calorimetry assay

[5] = biological target: Kelch-like ECH-associated protein 1 (Homo sapiens) (UniProt Q14145); assay: Binding affinity to Keap1 Kelch domain (unknown origin) assessed as change in entropy by isothermal titration calorimetry assay
[6] = biological target: Kelch-like ECH-associated protein 1 (Homo sapiens) (UniProt Q14145); remark: listed apart in the source
Description: Binding affinity to Keap1 Kelch domain (unknown origin) assessed as change in free energy by isothermal titration calorimetry assay

[7] = Metabolic stability in rat liver microsomes assessed as parent compound remaining at 5 uM measured after 60 mins; type: ADME, Microsome; conditions: read-out: Stability
[8] = Solubility of compound in FeSSIF at pH 5 incubated for 4 hrs by LC/MS analysis; type: ADME
[9] = Metabolic stability in human liver microsomes assessed as parent compound remaining at 5 uM measured after 60 mins; type: ADME, Microsome; conditions: read-out: Stability
[10] = Solubility of compound in FASSIF at pH 6.5 incubated for 4 hrs by LC/MS analysis; type: ADME
[11] = AUC in CD(SD) rat at 1 mg/kg, iv measured upto 25 hrs; type: ADME, organism-based; design: time < 25 hrs, dose 1 mg/kg, route iv; conditions: in vivo
[12] = MRT in CD(SD) rat at 3 mg/kg, po measured upto 25 hrs; type: ADME, organism-based; conditions: in vivo
[13] = AUC in CD(SD) rat at 3 mg/kg, po measured upto 25 hrs; type: ADME, organism-based; design: time < 25 hrs, dose 3 mg/kg, route po; conditions: in vivo
[14] = Oral bioavailability in CD(SD) rat at 3 mg/kg measured upto 25 hrs; type: ADME, organism-based; conditions: in vivo
[15] = biological target: KEAP1/NRF2 (Rattus norvegicus) (UniProt O54968+P57790); assay: In vivo inhibition of Nrf2-Keap1 Kelch domain protein-protein interaction in po dosed Wistar rat kidney assessed as increase in HO-1 protein level incubated for 6 hrs by ELISA assay; type: functional, organism-based; conditions: dose 3-30 mg/kg
[16] = Tmax in CD(SD) rat at 3 mg/kg, po measured upto 25 hrs; type: ADME, organism-based; conditions: in vivo
[17] = Half life in CD(SD) rat at 1 mg/kg, iv measured upto 25 hrs; type: ADME, organism-based; conditions: in vivo
[18] = MRT in CD(SD) rat at 1 mg/kg, iv measured upto 25 hrs; type: ADME, organism-based; conditions: in vivo
[19] = Total clearance in CD(SD) rat at 1 mg/kg, iv measured upto 25 hrs; type: ADME, organism-based; conditions: in vivo
[20] = Volume of distribution in CD(SD) rat at 1 mg/kg, iv measured upto 25 hrs; type: ADME, organism-based; conditions: in vivo

Kelch-like ECH-associated protein 1 (Homo sapiens), sequence (Q14145 whole entry, the tested form may be a part): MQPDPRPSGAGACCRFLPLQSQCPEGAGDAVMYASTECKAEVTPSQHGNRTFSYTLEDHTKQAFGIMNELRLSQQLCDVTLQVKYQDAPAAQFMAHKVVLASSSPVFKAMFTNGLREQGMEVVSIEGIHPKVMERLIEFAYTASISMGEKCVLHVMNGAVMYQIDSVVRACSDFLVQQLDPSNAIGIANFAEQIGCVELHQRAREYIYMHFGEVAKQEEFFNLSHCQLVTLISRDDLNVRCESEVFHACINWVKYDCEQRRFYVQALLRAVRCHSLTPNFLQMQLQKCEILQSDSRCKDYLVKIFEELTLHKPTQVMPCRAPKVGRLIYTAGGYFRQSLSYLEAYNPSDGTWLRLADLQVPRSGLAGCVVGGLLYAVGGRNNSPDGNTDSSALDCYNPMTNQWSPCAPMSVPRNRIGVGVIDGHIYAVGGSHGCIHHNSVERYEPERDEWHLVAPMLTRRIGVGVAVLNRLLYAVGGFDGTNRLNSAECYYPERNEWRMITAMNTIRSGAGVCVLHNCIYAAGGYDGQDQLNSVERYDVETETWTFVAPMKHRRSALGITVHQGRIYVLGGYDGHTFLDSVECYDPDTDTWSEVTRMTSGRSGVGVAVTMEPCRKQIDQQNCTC
Keap1/Nrf2, sequence (Q16236 whole entry, the tested form may be a part): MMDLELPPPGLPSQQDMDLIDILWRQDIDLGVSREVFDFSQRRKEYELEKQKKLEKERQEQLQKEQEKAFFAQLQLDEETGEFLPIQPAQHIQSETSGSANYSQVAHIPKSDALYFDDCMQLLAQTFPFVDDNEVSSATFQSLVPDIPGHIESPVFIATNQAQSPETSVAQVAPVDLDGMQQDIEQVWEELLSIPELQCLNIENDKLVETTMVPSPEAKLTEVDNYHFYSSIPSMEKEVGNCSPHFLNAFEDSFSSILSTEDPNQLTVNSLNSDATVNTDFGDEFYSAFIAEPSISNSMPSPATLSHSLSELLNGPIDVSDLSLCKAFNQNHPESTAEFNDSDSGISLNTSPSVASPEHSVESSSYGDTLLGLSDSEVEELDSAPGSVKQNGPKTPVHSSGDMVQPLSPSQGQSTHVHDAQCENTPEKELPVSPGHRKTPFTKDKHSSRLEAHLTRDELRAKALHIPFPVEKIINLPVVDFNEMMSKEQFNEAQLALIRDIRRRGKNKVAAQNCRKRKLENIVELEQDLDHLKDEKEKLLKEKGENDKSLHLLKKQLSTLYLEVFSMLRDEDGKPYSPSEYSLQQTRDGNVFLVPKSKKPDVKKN
Keap1/Nrf2, sequence (Q14145 whole entry, the tested form may be a part): as the sequence (Q14145 whole entry, the tested form may be a part) above

- IC50 [1]: > 100 µM
- Papp at 2 h, 25 µM [2]: 17 nm/s
SMILES: Cc1ccc([C@@H](NC(=O)C(=O)c2ccccc2)[C@@H](C)C(=O)O)cc1

- IC50 [1]: 90 µM
- Papp at 2 h, 25 µM [2]: 66 nm/s
SMILES: Cc1ccc([C@@H](NC(=O)[C@H](F)c2ccccc2)[C@@H](C)C(=O)O)cc1

SMILES: Cc1ccc([C@@H](NC(=O)Cc2ccc3c(c2)CCCC3)[C@@H](C)C(=O)O)cc1
- IC50 [1]: 2.8 µM
- IC50 [3]: 56 µM
- deltaH [4]: -18 kJ/mol
- Papp at 2 h, 25 µM [2]: 250 nm/s
- -TdeltaS [5]: -15.5 kJ/mol
- deltaG [6]: -33.5 kJ/mol

- remaining at 1 h, 5 µM [7]: 95%
- IC50 [1]: 40 µM
- solubility at 4 h [8]: 469 µM (≈ 165 µg/mL)
- Papp at 2 h, 25 µM [2]: 170 nm/s
- remaining at 1 h, 5 µM [9]: 85%
- solubility at 4 h [10]: 432 µM (≈ 152 µg/mL)
SMILES: Cc1ccc(C(CC(=O)O)NC(=O)Cc2ccc3c(c2)CCCC3)cc1 (stereo not given)

- IC50 [1]: 51 µM
SMILES: Cc1ccc([C@@H](NC(=O)Cc2ccc3c(c2)CCCC3)[C@H](C)C(=O)O)cc1

- remaining at 1 h, 5 µM [7]: 0%
- IC50 [1]: 37 µM
- solubility at 4 h [8]: 424 µM (≈ 172 µg/mL)
- Papp at 2 h, 25 µM [2]: 130 nm/s
- remaining at 1 h, 5 µM [9]: 0%
- solubility at 4 h [10]: ≥ 475 µM
SMILES: COc1ccc(S(=O)(=O)Nc2ccc(N3CCCCCC3)cc2C(=O)O)cc1

- IC50 [1]: 54 µM
SMILES: Cc1ccc(C(NC(=O)Cc2ccc3c(c2)CCCC3)C2(C(=O)O)CC2)cc1 (stereo not given)

- IC50 [1]: 67 µM
- Papp at 2 h, 25 µM [2]: 23 nm/s
SMILES: Cc1ccc([C@@H](NC(=O)Cc2ccccc2)[C@@H](C)C(=O)O)cc1

- IC50 [1]: > 100 µM
- Papp at 2 h, 25 µM [2]: 34 nm/s
SMILES: CO[C@H](C(=O)N[C@H](c1ccc(C)cc1)[C@@H](C)C(=O)O)c1ccccc1

- IC50 [1]: > 100 µM
- Papp at 2 h, 25 µM [2]: 2.7 nm/s
SMILES: Cc1ccc([C@@H](NC(=O)[C@H](O)c2ccccc2)[C@@H](C)C(=O)O)cc1

- IC50 [1]: 17 µM
SMILES: Cc1ccc(C(NC(=O)Cc2ccc3c(c2)CCCC3)C(C)(C)C(=O)O)cc1 (stereo not given)

- IC50 [1]: 55 µM
SMILES: CC[C@@H](C(=O)O)[C@H](NC(=O)Cc1ccc2c(c1)CCCC2)c1ccc(C)cc1

- IC50 [1]: > 100 µM
SMILES: Cc1ccc([C@@H](CC(=O)O)NC(=O)Cc2ccc3c(c2)CCCC3)cc1

- IC50 [1]: 96 µM
- Papp at 2 h, 25 µM [2]: 2.6 nm/s
SMILES: Cc1ccc([C@@H](NC(=O)[C@@H](O)c2ccccc2)[C@@H](C)C(=O)O)cc1

- IC50 [1]: 83 µM
SMILES: CO[C@@H](C(=O)N[C@H](c1ccc(C)cc1)[C@@H](C)C(=O)O)c1ccccc1

- IC50 [1]: 39 µM
- deltaH [4]: -18.8 kJ/mol
- -TdeltaS [5]: -9.2 kJ/mol
- deltaG [6]: -28 kJ/mol
SMILES: Cc1ccc([C@H](CC(=O)O)NC(=O)Cc2ccc3c(c2)CCCC3)cc1

SMILES: Cc1ccc([C@@H](NC(=O)[C@@H](F)c2ccccc2)[C@@H](C)C(=O)O)cc1
- IC50 [1]: 3.5 µM
- IC50 [3]: 36 µM
- Papp at 2 h, 25 µM [2]: 120 nm/s

SMILES: Cc1ccc([C@@H](NC(=O)[C@@H](F)c2ccc3c(c2)CCCC3)[C@@H](C)C(=O)O)cc1
- AUC at 25 h [11]: 79 µM·h
- remaining at 1 h, 5 µM [7]: 87%
- MRT [12]: 10 h
- AUC at 25 h [13]: 324 µM·h
- IC50 [1]: 0.089 µM
- IC50 [3]: 2 µM
- bioavailability [14]: 136%
- solubility at 4 h [8]: 303 µM (≈ 116 µg/mL)
- inhibition [15]: Dose-Dependent Effect
- Papp at 2 h, 25 µM [2]: 330 nm/s
- Tmax [16]: 1.3 h
- remaining at 1 h, 5 µM [9]: 70%
- half-life [17]: 4.5 h
- -TdeltaS [5]: -5.02 kJ/mol
- MRT [18]: 5.6 h
- clearance [19]: 0.03 L/h/kg
- Vd [20]: 0.18 L/kg
- solubility at 4 h [10]: ≥ 475 µM

- IC50 [1]: 99 µM
SMILES: CC[C@H](C(=O)O)[C@H](NC(=O)Cc1ccc2c(c1)CCCC2)c1ccc(C)cc1

SMILES: Cc1ccc([C@@H](NC(=O)C(F)(F)c2ccccc2)[C@@H](C)C(=O)O)cc1
- IC50 [1]: 8.9 µM
- IC50 [3]: 66 µM
- Papp at 2 h, 25 µM [2]: 150 nm/s
